Measurements from paper PMC8026785, “The pharmacokinetics of [^18F]UCB-H revisited in the healthy non-human primate brain” (EJNMMI Research, 2021).
Several values for one entry are separate records, joined by “and”; a condition that tells them apart may be missing. Equal entries are not always repeated.

Biological target: T1, SV2A (Macaca fascicularis, UniProt Q4R4X3)
T1 construct: The current study evaluates [^18F]UCB-H pharmacokinetics in healthy NHPs; from tissue; host or cells: brain of living healthy cynomolgus monkeys (in vivo PET)
Assay: Brain PET kinetic modelling (1TCM, 2TCM, 2TCM-c, Logan), test-retest
Format: in vivo, cynomolgus monkeys (Macaca fascicularis)
Protocol: All four non-human primates (NHP) underwent a 2-h (2 h) test and retest PET scan; two NHP underwent an additional 4-h (4 h) retest PET scan. Three NHP underwent one 4-h (4 h) displacement PET scan. Arterial blood sampling was performed during test and retest scans with PET imaging spaced by at least 3 weeks between each scan. To this end, the femoral artery opposite to the saphenous vein used for radioligand injection was cannulated. For the 2-h (2 h) scans, we collected in total 28 blood samples of 1 mL: 16 samples during the first 5 min followed by […] every 5 min and […] every 10 min. For the 4 h scans, we collected an additional 6 samples every 20 min during the last two hours (34 samples in total). Larger samples (2 – 3 mL) were collected at 5, 15, 30, 60, 90, 120 min (2 h) and at 180, 240 min (4 h) for metabolite analysis. Displacement of [^18F]UCB-H was done by intravenous (IV) administration 90 min after [^18F]UCB-H injection of a bolus of 30 mg/kg LEV, or of 80 µg/kg (≈250 nmol/kg) or 5 mg/kg (≈15 µmol/kg) of cold [^19F]-UCB-H. Full experimental design of all NHP is outlined in Additional file 1: Table 1.
PET imaging was performed on the microPET FOCUS220 (Siemens) under standard anesthesia and monitoring procedures. Data acquisition started with the IV bolus injection of [^18F]UCB-H (32.9 ± 1.0 MBq/kg, 0.35 ± 0.07 µg/kg). Dynamic PET images were reconstructed using standard OSEM-2D algorithms while correcting for radioactive decay, scatter, attenuation and detectors inhomogeneity, which were measured prior to PET scanning using respectively ^57Co and ^68Ge external sources.
PET image analysis was performed using PMOD software version 3.8 (PMOD Technologies Ltd., Zurich, Suisse). After individual co-registration of PET-MR images, a cynomolgus atlas published by Ballanger and coworkers was normalized to PET images to extract time activity curves in different brain regions. Volumes of interest (VOI) were cerebral white matter (16.7 cm^3), striatum (0.24 cm^3), thalamus (0.89 cm^3), cerebellum (3.83 cm^3), frontal—(2.50 cm^3), parietal—(5.35 cm^3), and temporal (8.22 cm^3) cortex, and whole brain (72.2 cm^3) as a composite region of all regions in the atlas. [^18F]UCB-H pharmacokinetics were evaluated by analyzing the time activity curves of the test- and retest scans using 1- and 2-tissue compartment models (unconstrained and constrained with global K1/k2 coupled fit across all regions, further referred to as 2TCM and 2TCM-c), and Logan graphical analysis with a fixed t* at 60 min [33] using the arterial plasma input function corrected for radio-metabolites to derive the volume of distribution in each region. Percentage standard error (%SE) was estimated from the theoretical parameter covariance matrix. Only reliable estimates (%SE less than 25%) were included in the current analyses. For the three drug studies, percent displacement of the total activity in the whole brain was estimated relative to an average baseline constructed from the two 4 h baseline studies. Briefly, Standardized Uptake Value (SUV) time activity curves (TACs) were calculated for the two baseline and the three displacement studies. Then, each curve was normalized to the SUV at t = 90 min, corresponding to the timeframe immediately before the administration of the drugs in the displacement studies. Baseline curves were averaged and the percent displacement of total activity was calculated as (baseline-displacement)/baseline at a given time post drug administration (see “Results”).
Statistical analysis was performed using R software (version 3.3.1.). Plasma, intact parent fraction and time activity curves were statistically compared between subjects using a one-factor variance analysis. Absolute Test–Retest variability (aTRV) of PET quantification parameters was calculated as ABS(test—retest) / AVERAGE(test, retest). […]

[1] = Temporal Cortex, Retest, individual NHP
[2] = Temporal Cortex, Test, individual NHP
[3] = Thalamus, Retest, individual NHP

T1 sequence (Q4R4X3 whole entry): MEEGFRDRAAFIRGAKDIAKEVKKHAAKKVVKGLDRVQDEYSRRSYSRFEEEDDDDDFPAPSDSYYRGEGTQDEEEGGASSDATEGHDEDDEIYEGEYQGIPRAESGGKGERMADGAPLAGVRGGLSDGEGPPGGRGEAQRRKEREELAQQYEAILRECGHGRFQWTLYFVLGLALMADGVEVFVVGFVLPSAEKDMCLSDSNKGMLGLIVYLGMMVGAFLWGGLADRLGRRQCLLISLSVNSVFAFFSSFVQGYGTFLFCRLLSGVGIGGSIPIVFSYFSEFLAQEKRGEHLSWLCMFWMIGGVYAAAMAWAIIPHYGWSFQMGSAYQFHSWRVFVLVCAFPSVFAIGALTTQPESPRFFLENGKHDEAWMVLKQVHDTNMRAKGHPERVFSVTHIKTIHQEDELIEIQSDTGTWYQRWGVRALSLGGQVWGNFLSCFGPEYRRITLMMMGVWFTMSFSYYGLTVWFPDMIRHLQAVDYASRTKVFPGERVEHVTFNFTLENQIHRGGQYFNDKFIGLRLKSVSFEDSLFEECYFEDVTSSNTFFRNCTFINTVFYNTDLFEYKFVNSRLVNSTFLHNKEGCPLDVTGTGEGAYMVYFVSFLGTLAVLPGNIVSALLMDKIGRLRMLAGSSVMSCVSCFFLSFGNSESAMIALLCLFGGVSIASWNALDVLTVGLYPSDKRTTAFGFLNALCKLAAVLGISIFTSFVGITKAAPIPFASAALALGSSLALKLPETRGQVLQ

VT (Logan (t* = 60)) (Striatum, Retest, mean): 15.7 mL/cm^3
k3/k4 (BPND) (2TCM-c) (Striatum, Retest, mean): 1.12
VT (2TCM) (Striatum, Test, individual NHP): 13.09 ml/cm^3 and 17.60 ml/cm^3
k3/k4 (2TCM) (Striatum, Test, individual NHP): 0.69
k3/k4 (2TCM-c) (Striatum, Test, individual NHP): 1.74 and 1.24 and 0.50
VT (1TCM) (Striatum, Test, mean): 14.2 mL/cm^3
VT (2TCM) (Striatum, Test, mean): 15.3 mL/cm^3
VT (2TCM-c) (Striatum, Test, mean): 15.0 mL/cm^3
VT (Logan (t* = 60)) (Striatum, Test, mean): 15.8 mL/cm^3
k3/k4 (BPND) (2TCM-c) (Striatum, Test, mean): 1.16
VT (2TCM) [1]: 13.97 ml/cm^3 and 13.95 ml/cm^3
k3/k4 (2TCM-c) [1]: 0.60 and 2.03 and 0.29
VT (2TCM) [2]: 12.30 ml/cm^3 and 15.50 ml/cm^3
k3/k4 (2TCM) [2]: 0.72
k3/k4 (2TCM-c) [2]: 1.00 and 1.58 and 0.41
ICC of Logan (t* = 60) VT (Temporal cortex): 0.61
aTRV of 2TCM-c VT (Temporal cortex): 25%
aTRV of Logan (t* = 60) VT (Temporal cortex): 13%
VT (1TCM) (Temporal cortex, Retest, mean): 13.0 mL/cm^3
VT (2TCM) (Temporal cortex, Retest, mean): 14.0 mL/cm^3
VT (2TCM-c) (Temporal cortex, Retest, mean): 13.1 mL/cm^3
VT (Logan (t* = 60)) (Temporal cortex, Retest, mean): 13.9 mL/cm^3
k3/k4 (BPND) (2TCM-c) (Temporal cortex, Retest, mean): 0.97
VT (1TCM) (Temporal cortex, Test, mean): 12.9 mL/cm^3
VT (2TCM) (Temporal cortex, Test, mean): 13.9 mL/cm^3
VT (2TCM-c) (Temporal cortex, Test, mean): 14.8 mL/cm^3
VT (Logan (t* = 60)) (Temporal cortex, Test, mean): 14.1 mL/cm^3
k3/k4 (BPND) (2TCM-c) (Temporal cortex, Test, mean): 1.00
ICC of Logan (t* = 60) VT (Thalamus): 0.61
aTRV of 2TCM-c VT (Thalamus): 18%
aTRV of Logan (t* = 60) VT (Thalamus): 12%
VT (2TCM) [3]: 11.88 ml/cm^3 and 14.03 ml/cm^3
Structure (SMILES): O=C1C[C@H](c2cc(F)c(F)c(F)c2)CN1Cc1ccncc1[18F] [[^18F]UCB-H]
K1 (2TCM) (Striatum, Test, individual NHP): 0.24 ml/cm^3 /min and 0.25 ml/cm^3 /min and 0.51 ml/cm^3 /min and 0.63 ml/cm^3 /min
K1 (2TCM-c) (Striatum, Test, individual NHP): 0.24 ml/cm^3 /min and 0.26 ml/cm^3 /min and 0.53 ml/cm^3 /min and 0.63 ml/cm^3 /min
K1/k2 (2TCM) (Striatum, Test, individual NHP): 10.32 ml/cm^3 and 7.75 ml/cm^3 and 12.01 ml/cm^3 and 15.06 ml/cm^3
K1/k2 (2TCM-c) (Striatum, Test, individual NHP): 7.86 ml/cm^3 and 4.35 ml/cm^3 and 8.22 ml/cm^3 and 10.99 ml/cm^3
VT (1TCM) (Striatum, Test, individual NHP): 12.87 ml/cm^3 and 11.31 ml/cm^3 and 16.41 ml/cm^3 and 16.40 ml/cm^3
VT (2TCM-c) (Striatum, Test, individual NHP): 14.78 ml/cm^3 and 11.92 ml/cm^3 and 16.73 ml/cm^3 and 16.50 ml/cm^3
VT (Logan) (Striatum, Test, individual NHP): 15.21 ml/cm3 and 12.85 ml/cm3 and 17.23 ml/cm3 and 17.97 ml/cm3
K1 (2TCM) [1]: 0.31 ml/cm^3 /min and 0.45 ml/cm^3 /min and 0.29 ml/cm^3 /min and 0.36 ml/cm^3 /min
K1 (2TCM-c) [1]: 0.32 ml/cm^3 /min and 0.48 ml/cm^3 /min and 0.30 ml/cm^3 /min and 0.36 ml/cm^3 /min
K1/k2 (2TCM) [1]: 11.50 ml/cm^3 and 9.63 ml/cm^3 and 11.78 ml/cm^3
K1/k2 (2TCM-c) [1]: 7.25 ml/cm^3 and 4.64 ml/cm^3 and 9.07 ml/cm^3 and 10.70 ml/cm^3
VT (1TCM) [1]: 11.57 ml/cm^3 and 13.96 ml/cm^3 and 13.50 ml/cm^3 and 13.13 ml/cm^3
VT (2TCM-c) [1]: 11.57 ml/cm^3 and 14.06 ml/cm^3 and 13.53 ml/cm^3
VT (Logan) [1]: 11.91 ml/cm3 and 13.90 ml/cm3 and 16.34 ml/cm3 and 13.54 ml/cm3
K1 (2TCM) [2]: 0.17 ml/cm^3 /min and 0.23 ml/cm^3 /min and 0.37 ml/cm^3 /min and 0.44 ml/cm^3 /min
K1 (2TCM-c) [2]: 0.17 ml/cm^3 /min and 0.24 ml/cm^3 /min and 0.37 ml/cm^3 /min and 0.44 ml/cm^3 /min
K1/k2 (2TCM) [2]: 11.10 ml/cm^3 and 7.16 ml/cm^3 and 8.97 ml/cm^3 and 12.30 ml/cm^3
K1/k2 (2TCM-c) [2]: 7.86 ml/cm^3 and 4.35 ml/cm^3 and 8.22 ml/cm^3 and 10.99 ml/cm^3
VT (1TCM) [2]: 12.66 ml/cm^3 and 10.58 ml/cm^3 and 14.25 ml/cm^3 and 13.95 ml/cm^3
VT (2TCM-c) [2]: 17.46 ml/cm^3 and 11.23 ml/cm^3 and 14.95 ml/cm^3 and 15.47 ml/cm^3
VT (Logan) [2]: 14.13 ml/cm3 and 11.99 ml/cm3 and 15.12 ml/cm3 and 15.35 ml/cm3
K1 (2TCM) [3]: 0.36 ml/cm^3 /min and 0.51 ml/cm^3 /min and 0.34 ml/cm^3 /min and 0.38 ml/cm^3 /min
K1 (2TCM-c) [3]: 0.37 ml/cm^3 /min and 0.54 ml/cm^3 /min and 0.36 ml/cm^3 /min and 0.38 ml/cm^3 /min
K1/k2 (2TCM) [3]: 12.79 ml/cm^3 and 11.34 ml/cm^3 and 12.88 ml/cm^3
K1/k2 (2TCM-c) [3]: 7.25 ml/cm^3 and 4.64 ml/cm^3 and 9.07 ml/cm^3 and 10.70 ml/cm^3
VT (1TCM) [3]: 11.85 ml/cm^3 and 13.85 ml/cm^3 and 14.73 ml/cm^3 and 13.28 ml/cm^3
VT (2TCM-c) [3]: 11.88 ml/cm^3 and 13.92 ml/cm^3 and 17.03 ml/cm^3 and 13.98 ml/cm^3
VT (Logan) [3]: 12.16 ml/cm3 and 14.10 ml/cm3 and 17.41 ml/cm3 and 13.62 ml/cm3
